Laboratory results published in PubChem BioAssay (NCI).
Values joined by “and” are separate entries in the source; they are usually repeats but may differ in a detail not shown here. Equal entries are not always repeated.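 In this assay, cells in 96-well plates receive the compound at five concentrations for 48 hours. Endpoints are linearly interpolated between the surrounding concentrations. GI50: concentration for 50% inhibition of growth. TGI: concentration producing complete growth inhibition.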 Where a SMILES comes first, the peptide text is derived from it. The star is where a group is joined. Cbz = O=C(OCc1ccccc1)*; Boc = CC(C)(C)OC(=O)*; OSu = O=C1CCC(=O)N1O*; Bn = c1ccc(C*)cc1

Tests used:
Assay in all cases: NCI tumour cell line growth inhibition, 48 h
SN12C renal = tested on: SN12C renal
SK-OV-3 ovarian = tested on: SK-OV-3 ovarian
NCI-H522 lung = tested on: NCI-H522 lung
SF-268 CNS = tested on: SF-268 CNS
K-562 leukemia = tested on: K-562 leukemia
HT29 colon = tested on: HT29 colon
SK-MEL-28 melanoma = tested on: SK-MEL-28 melanoma
IGROV1 ovarian = tested on: IGROV1 ovarian
MOLT-4 leukemia = tested on: MOLT-4 leukemia
SR leukemia = tested on: SR leukemia

SMILES | GI50 (SN12C renal) | TGI (SN12C renal) | GI50 (SK-OV-3 ovarian) | TGI (SK-OV-3 ovarian) | GI50 (NCI-H522 lung) | TGI (SF-268 CNS) | TGI (K-562 leukemia) [µM] | GI50 (HT29 colon) | TGI (HT29 colon) | GI50 (SK-MEL-28 melanoma) | TGI (SK-MEL-28 melanoma) | GI50 (IGROV1 ovarian) | TGI (IGROV1 ovarian) | TGI (MOLT-4 leukemia) [µM] | TGI (NCI-H522 lung) [µM] | GI50 (MOLT-4 leukemia) [µM] | TGI (SR leukemia) [µM] | GI50 (SF-268 CNS) [µM] | GI50 (SR leukemia) [µM]
CC[C@@]1(O)C(=O)OCc2c1cc1n(c2=O)Cc2c-1nc1ccccc1c2C=Nc1ccccc1N[C@@H]1c2cc3c(cc2[C@@H](c2cc(OC)c(O)c(OC)c2)[C@H]2C(=O)OC[C@@H]21)OCO3 | 0.0632 µM and 0.0234 µM | > 100 µM and 24.6 µM | 1.23 µM and 0.213 µM | 15.2 µM | 0.072 µM and 0.192 µM | > 82.3 µM | > 100 | 0.327 µM and 0.125 µM | > 50 µM | 11.4 µM and 1.17 µM | 35 µM and > 50 µM | 0.544 µM and 0.22 µM | 12.4 µM and 7.63 µM |  |  |  |  |  | 
Clc1ccc(C2=NCON=C2c2ccc(Cl)cc2)cc1 |  | 35.2 µM |  | 47.1 µM |  | 57.7 µM | 55 |  | 31.1 µM |  |  |  |  | 42.9 |  |  |  |  | 
CCC(=C/[C@H](C)C/C=C/C(C)=C/[C@@H](C)C(=O)[C@@H](C)[C@H](O)[C@@H](C)CC)/C=C/[C@H]1CC=CC(=O)O1 |  |  |  | 3.28 µM and 18.6 µM |  | 2.79 µM and 12.2 µM |  |  | 2.48 µM and 10.7 µM |  | 2.81 µM and 15.1 µM |  | 3.96 µM and 10.4 µM |  | < 0.0012 | < 0.0012 |  |  | 
CCOC(=O)c1cc2c3c(cc(OC)c2[nH]1)N(C(=O)OCC)CC3 |  | > 100 µM |  | > 100 µM |  | > 100 µM | > 100 |  | > 100 µM |  | > 100 µM |  | > 100 µM | > 100 |  |  | > 100 |  | 
c1ccc(Nc2nnc(CCCCCCCCc3nnc(Nc4ccccc4)o3)o2)cc1 |  | > 100 µM |  | > 100 µM |  | > 100 µM | > 100 |  | > 100 µM |  | > 100 µM |  | > 100 µM | > 100 | > 100 |  |  |  | 
CCOC(=O)c1csc(NC(=O)C(C)N2CCOCC2)n1 (configuration not stated) |  |  |  | > 100 µM |  |  | > 100 |  | > 100 µM |  | > 100 µM |  | > 100 µM | > 100 |  |  | > 100 |  | 
C[n+]1c2ccccc2c(C(=O)Nc2ccc(S(=O)(=O)Nc3ncccn3)cc2)c2ccccc21 |  | > 100 µM |  | > 100 µM |  | > 100 µM | > 100 |  | > 100 µM |  | > 100 µM |  | > 100 µM | > 100 |  |  | > 100 |  | 
CC(=O)N1c2cc(N=NN(C)C)ccc2NC(=O)CC1C (configuration not stated) |  | > 100 µM |  | > 100 µM |  | > 100 µM | > 100 |  | > 100 µM |  | > 100 µM |  | > 100 µM | > 100 | > 100 |  |  |  | 
COc1cc2c(cc1OC)C(=O)/C(=C/c1ccc(N(C)C)cc1)CC2 |  | > 10 µM |  | > 10 µM |  | > 10 µM | > 10 |  | > 10 µM |  | > 10 µM |  | > 10 µM | > 10 |  |  | > 10 |  | 
CC(C)(C)OC(=O)NC(Cc1ccc(OCc2ccccc2)cc1)C(=O)NC(CCCCNC(=O)OCc1ccccc1)C(=O)NC(CCCCNC(=O)OCc1ccccc1)C(=O)ON1C(=O)CCC1=O (configuration not stated) (Boc-Tyr(Bn)-Lys(Cbz)-Lys(Cbz)-OSu; configuration not given here) |  |  |  | > 100 µM |  | > 100 µM |  |  | > 100 µM |  | > 100 µM |  | > 100 µM | > 100 | 39.7 |  | > 100 |  | 
Cn1c(=O)c2c(nc(N/N=C3/SCC(=O)N3Cc3ccccc3)n2C)n(C)c1=O |  | > 100 µM |  | > 100 µM |  | > 100 µM | > 100 |  | > 100 µM |  | > 100 µM |  | > 100 µM |  | > 100 |  |  |  | 
Cc1cc2occ(S(=O)(=O)NC(=O)Nc3ccc(Cl)cc3)c(=O)c2c(=O)o1 |  | > 100 µM |  | > 100 µM |  | > 100 µM | > 100 |  | > 100 µM |  | > 100 µM |  | > 100 µM | > 100 | > 100 |  |  |  | 
Cc1ccc(-n2cc(-c3ccc(Cl)cc3)c3c(=N)n(N)cnc32)cc1 |  | 29.9 µM |  | 31.5 µM |  | 25.7 µM | 47.6 |  | 20.6 µM |  | 26.7 µM |  | 24.5 µM |  | 28 |  |  |  | 
CC(C)=CC(=O)c1c(C(=O)O)nc2ccccc2[n+]1[O-] |  | > 100 µM |  | > 100 µM |  | > 100 µM | > 100 |  | > 100 µM |  | > 100 µM |  | > 100 µM | > 100 |  |  | > 100 |  | 
COc1ccc2c(c1)CC[C@@H]1C2CC[C@]2(C)C(=C=CP(=O)(O)O)CCC12 (some centres not stated) |  | > 100 µM |  | > 100 µM |  | > 100 µM | > 100 |  | > 100 µM |  | > 100 µM |  | > 100 µM |  | > 100 |  | > 100 |  | 
CCN(CC)CCNc1ccc([N+](=O)[O-])c2sc3cc(Cl)ccc3c(=O)c12 | 2.05 µM | 6.58 µM | 3.33 µM | 96.5 µM | 9.01 µM | 46.9 µM |  | 1.7 µM | > 100 µM |  |  | 2.05 µM | 5.23 µM | > 100 | > 100 | 2.34 | > 100 | 9.88 | 4.7

SMILES | GI50 (SN12C renal) | TGI (SN12C renal) | GI50 (SK-OV-3 ovarian) | TGI (SK-OV-3 ovarian) | GI50 (NCI-H522 lung) | TGI (SF-268 CNS) | TGI (K-562 leukemia) [µM] | GI50 (HT29 colon) | TGI (HT29 colon) | GI50 (SK-MEL-28 melanoma) | TGI (SK-MEL-28 melanoma) | GI50 (IGROV1 ovarian) | TGI (IGROV1 ovarian) | TGI (MOLT-4 leukemia) [µM] | TGI (NCI-H522 lung) [µM] | GI50 (MOLT-4 leukemia) [µM] | TGI (SR leukemia) [µM] | GI50 (SF-268 CNS) [µM] | GI50 (SR leukemia) [µM]
COc1cc2c(cc1OCCCOc1ccc(-c3cc4ccccc4c4ccccc34)cc1)N=C[C@@H]1CCCN1C2=O | 0.518 µM | 1.84 µM | 1.6 µM | 3.26 µM |  | 2.08 µM | > 100 | 0.899 µM | 2.11 µM | 0.555 µM | 1.38 µM | 0.122 µM | 0.288 µM | 0.432 |  | 0.186 | 0.717 | 0.86 | 0.222
S=c1[nH]nc(CCCCCCCCc2n[nH]c(=S)o2)o1 |  | > 100 µM |  | > 100 µM |  | > 100 µM | > 100 |  | > 100 µM |  | > 100 µM |  | > 100 µM | > 100 |  |  |  |  | 
COc1cccc(CCCNC(=O)Cc2ccccc2CO)c1 |  | > 100 µM |  | > 100 µM |  |  | > 100 |  | > 100 µM |  | > 100 µM |  | > 100 µM | > 100 |  |  | > 100 |  | 
Cc1ncc(CSC(=N)N)n1Cc1ccccc1 |  | > 100 µM |  | > 100 µM |  | > 100 µM | > 100 |  | > 100 µM |  | > 100 µM |  | > 100 µM |  | 64.4 |  |  |  | 
O=C(O)CCC1NC(/C(=C/c2ccccc2O)NC(=O)c2ccccc2)OC1=O (configuration not stated) |  | > 100 µM |  | > 100 µM |  | > 100 µM | > 100 |  | > 100 µM |  | > 100 µM |  | > 100 µM | > 100 | > 100 |  |  |  | 
O=C(O)C1(C(O)c2ccccc2)SCCCS1 (configuration not stated) |  | > 10 µM |  | > 10 µM |  | > 10 µM | > 10 |  | > 10 µM |  | > 10 µM |  | > 10 µM | > 10 |  |  | > 10 |  | 
CC(=O)C(C(C)=O)[C@H]1OC(C)(C)O[C@H]1[C@H]1COC(C)(C)O1 |  | > 100 µM |  | > 100 µM |  | > 100 µM | > 100 |  | > 100 µM |  | > 100 µM |  | > 100 µM | > 100 | 93.3 |  |  |  | 
CCCCCCCc1ccc(-c2nnc(N=Nc3ccc(OCCCCC)cc3)s2)s1 |  | > 100 µM |  | > 100 µM |  | > 100 µM |  |  | > 100 µM |  | > 100 µM |  | > 100 µM | > 100 | > 100 |  |  |  | 
COC(=O)[C@@H]1COC(=O)N1 |  | > 100 µM |  | > 100 µM |  | > 100 µM | > 100 |  | > 100 µM |  | > 100 µM |  | > 100 µM | > 100 | > 100 |  |  |  | 
CSc1nc[nH]c1C(N)=S |  |  |  | > 100 µM |  | > 100 µM |  |  | > 100 µM |  | > 100 µM |  | > 100 µM | > 100 | > 100 |  |  |  | 
O=C(c1ccccc1)c1cc(Cl)ccc1NCn1nnc2ccccc21 |  | > 100 µM |  | > 100 µM |  |  | > 100 |  | > 100 µM |  |  |  | > 100 µM | > 100 | > 100 |  | > 100 |  | 
c1cncc([O][Ge]([O]c2cccnc2)([O]c2cccnc2)[O]c2cccnc2)c1 | > 100 µM | > 100 µM | > 100 µM | > 100 µM |  |  |  | > 100 µM | > 100 µM | > 100 µM | > 100 µM | > 100 µM | > 100 µM |  |  |  | > 100 |  | > 100
CC(=O)[C@]1(O)Cc2c(O)c3c(c(O)c2[C@@H](OC2CC(N)C(O)C(C)O2)C1)C(=O)c1c(OCc2ccccc2)cccc1C3=O (some centres not stated) |  | 4.65 µM |  | 21.2 µM |  | 11.7 µM | 2.68 |  | 14.7 µM |  | 2.91 µM |  | 33.8 µM |  | 5.19 |  | 0.468 |  | 
CC(=O)O[C@H]1C(=O)[C@@]2(C)[C@H]([C@H](OC(=O)c3ccco3)[C@]3(O)C[C@H](OC(=O)[C@H](O)[C@@H](NC(=O)c4ccccc4)c4ccccc4)C(C)=C1C3(C)C)[C@]1(OC(C)=O)CO[C@@H]1C[C@@H]2O |  | > 25 µM |  | 10 µM |  | > 25 µM |  |  | > 25 µM |  | > 25 µM |  | > 25 µM | > 25 |  |  | > 7.67 |  | 
CCOC(=O)C1C(c2ccc(OC)cc2)c2c([nH]n(-c3ccccc3)c2=O)CC1(C)O (configuration not stated) |  | > 100 µM |  |  |  | > 100 µM |  |  | > 100 µM |  | > 100 µM |  | > 100 µM | 6.35 | > 100 |  | > 100 |  | 
